Reference: US7750135B2, “Molecular design of thermostable alcohol dehydrogenase for synthesis for chiral aromatic alcohols” (Board of Trustees of Michigan State University, priority 2007, dated 2010)
Like-named read-outs stand apart in the source and are kept apart here.

Experiments:
[1] = target: T1, Y267G TeSADH (Thermoanaerobacter brockii, UniProt P14941, A186D/Y267G); format: biochemical, Thermoanaerobacter ethanolicus; conditions: heat-treated crude extracts
T1 construct: His6 (C); made in house; host or cells: E. coli, pET24a(+); heat-treated crude extract
Method: (§1) J. 302:163-170), with (rac)-2-butanol, (rac)-1-phenethyl alcohol, (rac)-1-phenyl-2-propanol, (rac)-4-phenyl-2-butanol, and phenylacetone as substrates. Assays were done in the presence of 50 mM Tris-HCl [pH 8.0] and 0.4 mM NADP^+ (alcohol oxidation), or pH 6.5 and 0.4 mM NADPH (ketone reduction). Initial velocity was measured spectrophotometrically at 60° C. by following NADPH production (alcohol oxidation) or consumption (ketone reduction) at 340 nm for 1 min in a Varian Cary 300 UV/Vis spectrophotometer equipped with a Peltier heating system. The enzyme was preincubated for at least 5 min at 40° C. before being added to the assays. […] One unit of activity was defined as the amount of enzyme needed to consume or produce 1 μmol of NADPH per minute.

[2] = target: T2, wild-type (WT) TeSADH (Thermoanaerobacter brockii, UniProt P14941, A186D); format: biochemical, Thermoanaerobacter ethanolicus; conditions: 60° C., 1 min, 50 mM Tris-HCl pH~6.5 (ketones) or pH~8.0 (alcohols), 0.4 mM NADP(H)
T2 construct: made in house; the wild-type adhB gene sat in plasmid pADHBIM1-kan
Method: as §1

[3] = target: T3, Wild-type TeSADH (Thermoanaerobacter brockii, UniProt P14941, A186D); format: biochemical, Thermoanaerobacter ethanolicus; design: made in house; the wild-type adhB gene sat in plasmid pADHBIM1-kan; conditions: heat-treated crude extracts
Method: as §1

[4] = target: T3, Wild-type TeSADH; conditions: 60° C., 1 min, 50 mM Tris-HCl pH ~8.0 (alcohols) or ~6.5 (ketones), 0.4 mM NADP(H)
Method: At least eight substrate concentrations were used for each data set and each set was performed in triplicate.

[5] = enzyme concentration estimated by SDS-PAGE

T1 sequence (P14941 whole entry A186D/Y267G): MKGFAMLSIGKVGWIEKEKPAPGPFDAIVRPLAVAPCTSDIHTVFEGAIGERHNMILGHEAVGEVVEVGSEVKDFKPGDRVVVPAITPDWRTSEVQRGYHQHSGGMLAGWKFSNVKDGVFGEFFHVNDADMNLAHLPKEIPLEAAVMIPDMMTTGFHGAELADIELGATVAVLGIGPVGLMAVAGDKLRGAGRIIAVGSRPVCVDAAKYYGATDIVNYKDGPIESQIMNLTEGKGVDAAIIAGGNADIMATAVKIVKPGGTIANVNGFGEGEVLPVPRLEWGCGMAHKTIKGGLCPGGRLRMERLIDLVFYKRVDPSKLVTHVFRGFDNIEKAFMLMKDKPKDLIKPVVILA
T2 sequence (P14941 whole entry A186D): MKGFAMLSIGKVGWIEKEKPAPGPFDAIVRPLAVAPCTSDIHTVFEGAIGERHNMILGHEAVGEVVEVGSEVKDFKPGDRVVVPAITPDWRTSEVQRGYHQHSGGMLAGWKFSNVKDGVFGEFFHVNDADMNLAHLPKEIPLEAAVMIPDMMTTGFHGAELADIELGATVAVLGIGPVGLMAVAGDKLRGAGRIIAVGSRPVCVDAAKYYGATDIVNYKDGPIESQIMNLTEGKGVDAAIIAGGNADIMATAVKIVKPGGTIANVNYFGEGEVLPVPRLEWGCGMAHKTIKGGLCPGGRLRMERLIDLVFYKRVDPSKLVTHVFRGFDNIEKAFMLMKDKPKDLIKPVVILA
T3 sequence (P14941 whole entry A186D): as above

SMILES	Activity of Y267G TeSADH [1]	Specific activity, WT ([2]; substrate 7.5 mM)	further results
CC(O)c1ccccc1 (racemic) [(rac)-1-Phenethyl alcohol]	no detectable activity	–	Specific activity, WT ([2]; substrate 10 mM): 0.15 U(umol)/mg protein
CC(O)Cc1ccccc1 (racemic) [(rac)-1-phenyl-2-propanol]	no detectable activity	–	Specific activity, WT ([2]; substrate 10 mM): 0.14 U(umol)/mg protein
CC(O)CCc1ccccc1 (racemic) [(rac)-4-Phenyl-2-butanol]	no detectable activity	0.29 U(umol)/mg protein	–
CC(=O)CCc1ccccc1 [1a, 4-Phenyl-2-butanone]	–	5.94 U(umol)/mg protein	Activity of wild-type TeSADH [3]: only slight activity
CCC(C)O (stereo not drawn) [2-Butanol]	–	45.27 U(umol)/mg protein	Specific activity of Y267G TeSADH [1, 5]: ~33 U/mg; Vmax (app), Wild-type TeSADH [4]: 37 U/mg; Km ([4]; read-out: Km (app), Wild-type TeSADH): 510 µM; Specific activity of wild-type TeSADH [3, 5]: ~41 U/mg
CC(=O)Cc1ccccc1 [7a, 1-phenyl-2-propanone]	–	1.02 U(umol)/mg protein	–
CC(=O)c1ccccc1 [Acetophenone]	–	0.90 U(umol)/mg protein	–
